Test results published in US20240041876A1, “PHARMACEUTICAL COMPOSITION FOR PREVENTION OR TREATMENT OF DEGENERATIVE BRAIN DISEASES COMPRISING ABEMACICLIB AS ACTIVE INGREDIENT” (priority 2020, published 2024).

Assays:
BV2 microglia = experiment: MTT assay, cytotoxicity to BV2 microglia; assay type: cell-based; conditions: 0.1, 1, 5, 10, 25, or 50 μM; 24 hours in the absence of FBS
Method: Cell viability was measured using the 3-(4,5-dimethylthiazol-2-yl)-2,5-diphenyltetrazolium bromide (MTT) assay. BV2 microglia were seeded in a 96-well plate and treated with various concentrations of abemaciclib mesylate (0.1, 1, 5, 10, 25, 50 μM) for 24 hours in the absence of FBS. Then, the cells were treated with 0.5 mg/ml MTT and incubated at 37° C. for 3 hours in a 5% CO2 incubator, and absorbance was measured at 580 nm.
To determine whether or not abemaciclib is cytotoxic to BV2 microglia, BV2 microglia were treated with abemaciclib at different concentrations (0.1, 1, 5, 10, 25, or 50 μM) and then MTT assay was performed.

5×FAD mice [1] = experiment: Abemaciclib versus donepezil: cognitive function in 5×FAD mice (Y maze, NOR); assay type: in vivo, mouse; conditions: abemaciclib 30 mg/kg or donepezil 1 mg/kg intraperitoneal daily for 14 days
Method: Then, percent alteration=(number of alterations/number of triads)×100 was obtained and used as a parameter of short-term memory. • Alteration: 1 point awarded when the mouse enters three different arms in turn • Triads: Total visits—2
The animal was allowed to start from the center of the box, and the time at which the animal was interested in the object was recorded for 5 minutes. After 24 hours, one of the two objects was replaced with fresh one, the times at which the mouse approached the old object and the fresh object were measured, and the preference for the new object was analyzed and used as a long-term memory analysis index.

5×FAD mice [2] = experiment: Abemaciclib versus donepezil: astrocyte activity in 5×FAD mice (anti-GFAP, anti-6E10); assay type: in vivo, mouse; conditions: abemaciclib 30 mg/kg or donepezil 1 mg/kg intraperitoneal daily for 14 days
5×FAD mice [3] = experiment: Abemaciclib versus donepezil: tau kinases phospho-GSK-3β and DYRK1A in 5×FAD mice; assay type: in vivo, mouse; conditions: abemaciclib 30 mg/kg or donepezil 1 mg/kg intraperitoneal daily for 14 days
Method: F1-generation male 5×FAD mice (stock #34848-JAX, B6Cg-Tg APPSwF1Lon, PSEN1*M146L*L286V6799Vas/Mmjax) purchased from Jackson Laboratory were used. 5×FAD mice (3 months old) were bred in a sterile facility under 12-hour light/dark controlled conditions at an ambient temperature of 22° C. After daily administration of abemaciclib (30 mg/kg, intraperitoneal administration) or vehicle (10% DMSO) to 5×FAD mice for 14 days, Y maze test on day 15 and NOR test on day 16 to 17 were performed, followed by fluorescent tissue staining or Golgi staining.
Then, each brain section was subjected to immunohistochemical staining. Brain sections were rinsed in PBS and permeabilized for 1 hour at room temperature using PBS containing 0.2% Triton X-100 and 1% BSA. Then, the primary antibody was diluted in PBST (0.2% Triton X-100 in PBS) and reacted at 4° C. for 24 hours, and the next day, the tissue was washed three times with PBST, and then reacted with a secondary antibody bound with a fluorescent signal at room temperature for 2 hours. Then, the brain sections were washed three times with PBS, placed on slides, and observed under a fluorescence microscope.

Structure (SMILES)	cytotoxicity to BV2 microglia (MTT assay) (BV2 microglia)	short-term memory (Y maze) (5×FAD mice [1]; day 15)	long-term memory (NOR test) (5×FAD mice [1]; day 16-17)	number of astrocytes directly interacting with amyloid plaques (5×FAD mice [2])	expression of DYRK1A, a tau kinase, in the cortex (5×FAD mice [3])	expression of DYRK1A, a tau kinase, in the hippocampus (5×FAD mice [3])	hippocampal phospho-GSK-3β levels (5×FAD mice [3])
CCN1CCN(Cc2ccc(Nc3ncc(F)c(-c4cc(F)c5nc(C)n(C(C)C)c5c4)n3)nc2)CC1 [abemaciclib]	did not induce cytotoxicity						
COc1cc2c(cc1OC)C(=O)C(CC1CCN(Cc3ccccc3)CC1)C2 (stereo not shown) [donepezil]		improved	improved	reduced	reduced	reduced	reduced
